# Assay results published in patent US5583108A, “Vasonatrin peptide and analogs thereof” (Mayo Foundation for Medical Education and Research, priority 1994, dated 1996).
# Entries after “also recorded” stand apart in the source; their conditions may differ.
# Assays:
# [1] = test system: isolated normal canine blood vessels; test: Organ chamber isometric force: relaxation of phenylephrine-contracted vessel rings; design: species or system dog; settings: for relaxation: maximal dose (3×10^-6 M); for maximal response, percent change in tension from a contraction to phenylephrine: peptide 3 × 10^-6 M, mean ± SEM
# Procedure: (§1) The results obtained are expressed as the means ±SEM. In organ chamber studies, n equals the number of dogs from which rings were taken. Rings with and without endothelium were studied in parallel, and Student's t-test for unpaired observations was used to determine statistical significance among the responses of rings with and without endothelium and between responses of arteries and veins. In rat studies, the data were analyzed using ANOVA for repeated measures followed by Fisher's least significant difference test when appropriate within the group. Data between groups were analyzed by Student's unpaired t-test. Statistical significance was determined at p<0.05.
# Rings cut from femoral, saphenous, renal and pulmonary arteries and veins obtained from random source mongrel dogs (anesthetized with 30 mg/kg pentobarbital sodium intravenously) were suspended for the measurement of isometric force in organ chambers filled with aerated (95% O2 and 5% CO2) modified Krebs-Ringer bicarbonate solution (composition in mM: 118.3 NaCl, 4.7 KCl, 2.5 CaCl2, 1.2 MgSO4, 1.2 KH2 PO4, 25.0 NaHCO3, 0.026 calcium sodium EDTA, and 11.1 dextrose; control solution) at 37° C. In one-half rings, the endothelium was removed by gently rubbing the intimal surface with a cotton swab wetted with control solution. Each ring was stretched to the optimal point on its length-tension curve as determined by the tension developed to norepinephrine (3×10^-7 M) at each level of stretch. The presence of endothelium was determined at the beginning of the experiment by a relaxation to acetylcholine (10^-6 M) during a contraction to norepinephrine at optimal length. The maximal tension of each ring was determined by norepinephrine (10^-4 M). To study responses to ANP, CNP and VNP, the rings were contracted with phenylephrine (10^-6 M). These contractions averaged 30-40% of the maximal contraction to norepinephrine. The peptides were added cumulatively once the contraction had stabilized.
# The following commercially available drugs were used: acetylcholine chloride (Sigma Chemical, St. Louis, Mo.), human ANP and human CNP (Peninsula Laboratories, Belmont, Calif.), L-norepinephrine bitartrate (Sigma), phenylephrine bitartrate (Sigma). All drugs were dissolved in distilled water immediately prior to study, and the concentrations are reported as the final molar concentration (M) in the organ chamber.
# normal rats = test: Cardiorenal actions after intravenous bolus in anesthetized normal rats; assay type: in vivo, Wistar rats; settings: for MAP mean arterial pressure / HR heart rate / RAP right atrial pressure / UKV urine potassium excretion / UNaV urine sodium excretion / UV urine volume / UcGMPV urine cGMP volume / PcGMP plasma cGMP: mean ± SEM; for MAP mean arterial pressure: n = 4
# Procedure: as §1
# Experiments were conducted in accordance with the Animal Welfare Act. Wistar rats and spontaneously hypertensive rats (SHR) (400 g; Harlan Sprague-Dawley, Indianapolis, Ind.) were anesthetized with Inactin (100 mg/kg; intraperitoneal; BYK Gulden, Konstanz, Germany). The body temperature was maintained between 36° and 38° C. by a heating pad. Tracheostomy was performed; however, the animals were not artificially ventilated. Polyethylene catheters (PE-50; Becton Dickinson Co., Parsippany, N.J.) were placed in the left Jugular vein for infusions of saline and drugs, in the right jugular vein to right atrium to monitor right atrial pressure, and in the carotid artery for the collection of blood samples and to monitor mean arterial pressure. A PE-90 catheter was placed in the bladder for urine collection.
# Experiments were conducted in three groups in normal rats: ANP group (n=4), CNP group (n=4), and VNP group (n=4). VNP also was studied in SHR rats (n=4). Intravenous infusions of saline solution (0.9% NaCl) were performed (1 ml/100 gm body weight/hr) through the left jugular vein catheter. After completion of surgery, rats were allowed to stabilize for 30 minutes. In each group, a 15-min baseline period followed. After the baseline period, saline solution (0.9% NaCl) was administered in a bolus fashion (0.1 ml) and was followed by a 15-min period. After the saline period, the peptide (ANP, CNP or VNP) was administered in a bolus fashion (0.1 ml) at 5 μg/kg which was followed by a 15-min period. This was followed by a second bolus (0.1 ml) at 50 μg/kg and a 15-min period. After a 30-min washout, a 15-min recovery period followed. During each experimental period, mean arterial pressure (MAP), heart rate (HR), and right atrial pressure (RAP) were measured. At the midpoint of baseline, second bolus fashion (50 μg/kg) and recovery periods, blood was sampled for plasma cGMP. At the end of each period, urine was measured for volume (UV), and samples were stored for electrolytes and cGMP analysis.
# Blood for plasma cGMP analysis was collected into EDTA tubes, immediately placed on ice, and centrifuged at […] at 4° C. Plasma was separated and stored at -20° C. until assay. Urine for cGMP determination was heated to >90° C. before storage. Plasma and urine cGMP were determined by a specific RIA as previously described by A. L. Steiner et al., J. Hypertension, 5 (Suppl. 5) 551-553 (1987).
# [2] = test system: isolated vessels in congestive heart failure dogs; test: Preliminary studies: vasorelaxation in isolated vessels of congestive heart failure dogs; design: species or system dog
# [3] = test system: vessels pre-contracted with endothelin; test: Relaxation of vessels pre-contracted with endothelin
# [4] = normal rats, high dose (50 μg/kg) bolus
structure (smiles),measurement,setting,value
"CC[C@H](C)[C@@H]1NC(=O)[C@H](CCCNC(=N)N)NC(=O)[C@H](CC(=O)O)NC(=O)[C@H](CC(C)C)NC(=O)[C@H](CCCCN)NC(=O)[C@H](CC(C)C)NC(=O)CNC(=O)[C@H](Cc2ccccc2)NC(=O)[C@@H](NC(=O)CNC(=O)[C@H](CCCCN)NC(=O)[C@H](CO)NC(=O)[C@H](CC(C)C)NC(=O)CN)CSSC[C@@H](C(=O)N[C@@H](CC(N)=O)C(=O)N[C@@H](CO)C(=O)N[C@@H](Cc2ccccc2)C(=O)N[C@@H](CCCNC(=N)N)C(=O)N[C@@H](Cc2ccc(O)cc2)C(=O)O)NC(=O)CNC(=O)[C@H](CC(C)C)NC(=O)CNC(=O)[C@H](CO)NC(=O)[C@H](CCSC)NC(=O)[C@H](CO)NC(=O)CNC1=O [VNP, vasonatrin peptide]",relaxation,[1]; femoral and saphenous arteries,90-100%
same,"maximal response, percent change in tension from a contraction to phenylephrine","[1]; femoral artery, with endothelium, phenylephrine 10^-6 M",91 ± 4%
same,"maximal response, percent change in tension from a contraction to phenylephrine","[1]; femoral artery, without endothelium",89 ± 5%
same,"maximal response, percent change in tension from a contraction to phenylephrine","[1]; femoral vein, with endothelium",81 ± 6%
same,"maximal response, percent change in tension from a contraction to phenylephrine","[1]; femoral vein, without endothelium",86 ± 6%
same,relaxation,[1]; femoral veins,90%
same,order of potency,[1]; pulmonary arteries,ANP=VNP>CNP
same,"maximal response, percent change in tension from a contraction to phenylephrine","[1]; pulmonary artery, with endothelium",57 ± 5%
same,"maximal response, percent change in tension from a contraction to phenylephrine","[1]; pulmonary artery, without endothelium",63 ± 7%
same,"maximal response, percent change in tension from a contraction to phenylephrine","[1]; pulmonary vein, with endothelium",71 ± 2%
same,"maximal response, percent change in tension from a contraction to phenylephrine","[1]; pulmonary vein, without endothelium",84 ± 3%
same,order of potency,[1]; pulmonary veins without endothelium,VNP>CNP>ANP
same,"maximal response, percent change in tension from a contraction to phenylephrine","[1]; renal artery, with endothelium",52 ± 4%
same,"maximal response, percent change in tension from a contraction to phenylephrine","[1]; renal artery, without endothelium",62 ± 12%
same,"maximal response, percent change in tension from a contraction to phenylephrine","[1]; renal vein, with endothelium",65 ± 6%
same,"maximal response, percent change in tension from a contraction to phenylephrine","[1]; renal vein, without endothelium",90 ± 4%
same,"maximal response, percent change in tension from a contraction to phenylephrine","[1]; saphenous artery, with endothelium",73 ± 3%
same,"maximal response, percent change in tension from a contraction to phenylephrine","[1]; saphenous artery, without endothelium",81 ± 5%
same,"maximal response, percent change in tension from a contraction to phenylephrine","[1]; saphenous vein, with endothelium",60 ± 11%
same,"maximal response, percent change in tension from a contraction to phenylephrine","[1]; saphenous vein, without endothelium",89 ± 6%
same,relaxation,[1]; saphenous veins,90%
same,potency for relaxation (order),[1]; systemic arteries,VNP>ANP≥CNP
same,"relaxation, % of the contraction to phenylephrine","[1]; systemic arteries (femoral, saphenous and renal)",50-90%
same,potency for relaxation (order),[1]; systemic veins,VNP>CNP>ANP
same,natriuretic action (in words),"normal rats; in vivo, rat",potent natriuretic effect
same,change in MAP and RAP (in words),normal rats; [4],significant decrease; also recorded: significantly decreased
same,"change in urine flow, sodium excretion, plasma cGMP and urinary cGMP volume (in words)",normal rats; [4],significantly increased
same,"increase in urine flow, sodium excretion and urinary cGMP volume compared between peptides",normal rats; [4],"significantly higher with VNP than those of CNP, but were less than those of ANP"
same,MAP mean arterial pressure,"normal rats; normal rats, iv bolus 5 μg/kg, 15-min period",93 ± 15 mmHg
same,HR heart rate,"normal rats; normal rats, iv bolus 5 μg/kg",393 ± 20 beats/min
same,RAP right atrial pressure,"normal rats; normal rats, iv bolus 5 μg/kg",-3.5 ± 0.9 mmHg
same,UKV urine potassium excretion,"normal rats; normal rats, iv bolus 5 μg/kg",3.3 ± 1.4 µmol/min
same,UNaV urine sodium excretion,"normal rats; normal rats, iv bolus 5 μg/kg",5.3 ± 1.9 µmol/min
same,UV urine volume,"normal rats; normal rats, iv bolus 5 μg/kg",32.2 ± 7.5 µL/min
same,UcGMPV urine cGMP volume,"normal rats; normal rats, iv bolus 5 μg/kg",113 ± 27 pmol/min
same,HR heart rate,"normal rats; normal rats, iv bolus 50 μg/kg",408 ± 25 beats/min
same,PcGMP plasma cGMP,"normal rats; normal rats, iv bolus 50 μg/kg",33.3 ± 8.7 pmol/mL
same,RAP right atrial pressure,"normal rats; normal rats, iv bolus 50 μg/kg",-4.3 ± 0.8 mmHg
same,UKV urine potassium excretion,"normal rats; normal rats, iv bolus 50 μg/kg",11.9 ± 4.7 µmol/min
same,UNaV urine sodium excretion,"normal rats; normal rats, iv bolus 50 μg/kg",22.5 ± 2.2 µmol/min
same,UV urine volume,"normal rats; normal rats, iv bolus 50 μg/kg",136 ± 5.5 µL/min
same,UcGMPV urine cGMP volume,"normal rats; normal rats, iv bolus 50 μg/kg",961 ± 82 pmol/min
same,MAP mean arterial pressure,"normal rats; normal rats, recovery period after 30-min washout",93 ± 15 mmHg
same,HR heart rate,"normal rats; normal rats, recovery period",390 ± 20 beats/min
same,PcGMP plasma cGMP,"normal rats; normal rats, recovery period",4.4 ± 1.4 pmol/mL
same,RAP right atrial pressure,"normal rats; normal rats, recovery period",-2.9 ± 0.9 mmHg
same,UKV urine potassium excretion,"normal rats; normal rats, recovery period",1.3 ± 0.6 µmol/min
same,UNaV urine sodium excretion,"normal rats; normal rats, recovery period",0.9 ± 0.3 µmol/min
same,UV urine volume,"normal rats; normal rats, recovery period",8.4 ± 2.7 µL/min
same,UcGMPV urine cGMP volume,"normal rats; normal rats, recovery period",88 ± 48 pmol/min
same,MAP mean arterial pressure,"normal rats; normal rats, second iv bolus 50 μg/kg, 15-min period",79 ± 15 mmHg
same,vasorelaxing actions (in words),[2],potent vasorelaxing actions
same,relaxation of pre-contracted vessels (in words),[3],able to relax
